According to patent US20190069544A1, “COMPOSITION COMPRISING A MEL, A FATTY ACID METHYL ESTER AND A NON-IONIC […] A HLB VALUE GREATER THAN OR EQUAL TO 12” (OLEON NV, priority 2016, published 2019):

Experiments:
[1] = test system: chenopodium plants (Chenopodium album); test: Cell activity of plant roots by fluorescent markers after treatment; format: in vivo; conditions: 24 to 48 h after treatment, 500 g/ha, 2% ammonium sulphate (FIG. 10)
Method: (§1) Composition 2 according to the invention prepared in Example 1 was used in combination with an herbicide active ingredient (glyphosate) in the treatment of chenopodium plants (Chenopodium album). The chenopodium plants used were at a 2 to 3 leaves stage (BBCH 12-13), and were grown in a phytotron at a temperature of 15° C. during the night and 20° C. during the day, with a photoperiod of 14 hours. The glyphosate used was non-formulated (technical ingredient, reference 4521, Sigma-Aldrich®). […]
The evaluation of the effectiveness was carried out by measuring the cell activity of the roots of the plants 24 to 48 h after treatment. The cell activity is measured by staining the cells using fluorescent markers making it possible to distinguish: • the cells having a metabolic activity (living cells), which emit a green fluorescence; • the structures which emit a blue fluorescence; and • the dead cells, which emit a red fluorescence.
When the cell metabolic activity reduces, the green fluorescence reduces.

[2] = test system: chenopodium plants (Chenopodium album); test: Herbicide effectiveness: destruction of the vegetation, naked eye, 14 days after treatment; format: in vivo
Method: as §1
Evaluation of the effectiveness was also carried out by observation of the plants with the naked eye 14 days after treatment. The effectiveness is evaluated in percentage of destruction of the vegetation, taking into account the size of the plants and the symptoms of phytotoxicity such as deformation of the leaves, the appearance of white patches and necrosis.

Compound: O=C(O)CNCP(=O)(O)O [glyphosate]
- Reduction in the intensity of the fluorescence in the cells of the roots (cell metabolic activity) [1]: not observed
- Phytotoxicity, in words ([2]; 14 days after treatment (FIGS. 11, 12)): not observed
- Effectiveness (average), percentage of destruction of the vegetation ([2]; 14 days after treatment, dose 500 g/ha, 2% ammonium sulphate, average of 4 pots of 4 plants): 0%
